Data on 47 molecules can be found in patent publication US20240317727A1 (Duke University, priority 2018, published 2024).

SMILES strings stand for the structures.

The target in the first experiment is T1, recombinant HSF1 DNA-binding domain (DBD) (Homo sapiens, UniProt Q00613).
T1 sequence (Q00613 15-120): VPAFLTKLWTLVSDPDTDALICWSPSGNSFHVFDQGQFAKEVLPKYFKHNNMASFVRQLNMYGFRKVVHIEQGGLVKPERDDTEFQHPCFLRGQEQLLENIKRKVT
Briefly: Differential Scanning Fluorimetry (DSF), HSF1 DBD melting temperature. The conditions noted are these: Table 1; 5 μM HSF1 DBD, 25PM Compound; positive = stabilizes, negative = destabilizes HSF1.
In the case of `O=C(Nc1ccc(Cl)cc1)Nc1cccc([N+](=O)[O-])c1` [Compound 0049, 1-(4-chlorophenyl)-3-(3-nitrophenyl)urea], the ΔTm at 25 µM worked out at 3.11 °C.

With `Cc1cc(Oc2c([N+](=O)[O-])cc(C(F)(F)F)cc2[N+](=O)[O-])c2c(Cl)ccc(C)c2n1` [Compound 0111], the ΔTm at 25 µM was -5.21 °C.

Regarding `O=C(Nc1ccccc1)Nc1cccc(Cl)c1` [Compound 0091, 1-(3-chlorophenyl)-3-phenylurea], the ΔTm at 25 µM worked out at 2.5 °C.

`Cc1ccc(NC(=O)Nc2ccc(Cl)c([N+](=O)[O-])c2)cc1` [Compound 0046, 1-(4-chloro-3-nitrophenyl)-3-(p-tolyl)urea]: the ΔTm at 25 µM was 4.3 °C.

As for `O=[N+]([O-])c1cc(NC2=NS(=O)(=O)N=C2Nc2ccc(F)cc2)ccc1Cl` [Compound 0080, N3-(4-chloro-3-nitro-phenyl)-N4-(4-fluorophenyl)-1,1-dioxo-1,2,5-thiadiazole-3,4-diamine], the ΔTm at 25 µM stood at 1.6 °C.

Take `O=C(Nc1ccc(F)c(F)c1)Nc1ccc(Cl)c([N+](=O)[O-])c1` [Compound 0034, 1-(4-chloro-3-nitrophenyl)-3-(3,4-difluorophenyl)urea]: the ΔTm at 25 µM turned out to be 5.7 °C.

As to `O=C(Nc1cccc(Cl)c1)Nc1ccc(Cl)c([N+](=O)[O-])c1` [Compound 0061, 1-(4-chloro-3-nitrophenyl)-3-(3-chlorophenyl)urea], the ΔTm at 25 µM amounted to 2.94 °C.

For `O=c1c(Nc2ccc(F)c(F)c2)c(Nc2ccc(Cl)c(S(=O)(=O)C(F)(F)F)c2)c1=O` [Compound 0016, 3-[4-chloro-3-(trifluoromethylsulfonyl)anilino]-4-(3,4-difluoroanilino)cyclobut-3-ene-1,2-dione], the ΔTm at 25 µM turned out to be 2.75 °C.

Take `N#C/C(=C(/Oc1ccc(Cl)cc1Cl)C(F)(F)F)c1ccccc1` [Compound 0107]: the ΔTm at 25 µM is -4.4 °C.

As for `O=C(Nc1ccccc1)Nc1ccc(OC(F)(F)F)cc1` [Compound 0085], the ΔTm at 25 µM was found to be 3.26 °C.

For `O=S1(=O)N=C(Nc2ccc(F)cc2)C(Nc2ccc(Cl)c(C(F)(F)F)c2)=N1` [Compound 0033, N3-[4-chloro-3-(trifluoromethyl)phenyl]-N4-(4-fluorophenyl)-1,1-dioxo-1,2,5-thiadiazole-3,4-diamine], the ΔTm at 25 µM was 1.9 °C.

For the molecule `O=c1c(Nc2ccc(F)cc2)c(Nc2ccc(Cl)c([N+](=O)[O-])c2)c1=O` [Compound 0002, 3-(4-chloro-3-nitro-anilino)-4-(4-fluoroanilino)cyclobut-3-ene-1,2-dione], the ΔTm at 25 µM was 1.9 °C.

Consider `O=[N+]([O-])c1cc(C(F)(F)F)cc([N+](=O)[O-])c1O/N=C1\CSCc2ccccc21` [Compound 0008], for which the ΔTm at 25 µM was -4.56 °C.

For `O=C(Nc1cccc(Cl)c1)O/N=C/c1ccc(F)cc1` [Compound 0045], the ΔTm is −8.21.

On to `CC(NC(=O)CSc1nnc(-c2ccccc2O)n1-c1ccccc1)c1ccccc1` (centres unmarked) [Compound 0052], for which the ΔTm at 25 µM was -11 °C.

With `Cc1cc(N)c2ccccc2c1O` [Compound 0039], the ΔTm at 25 µM is -4.28 °C.

With `O=C(Nc1ccc(F)cc1)Nc1ccc2nonc2c1` [Compound 0027, 1-(2,1,3-benzoxadiazol-5-yl)-3-(4-fluorophenyl)urea], the ΔTm at 25 µM turned out to be 2.8 °C.

With `Cc1ccc(-n2c(SCC(=O)NC(C)c3ccccc3)nnc2-c2ccccc2)cc1` (centres unmarked) [Compound 0030], the ΔTm at 25 µM is -8.57 °C.

`Cc1ccc(/C=N/NC(=O)c2c[nH]c3ccccc23)s1` [Compound 0082]: the ΔTm at 25 µM is 3.9 °C.

On to `O=C(Nc1cccc(F)c1)Nc1ccc(Cl)c([N+](=O)[O-])c1` [Compound 0020, 1-(4-chloro-3-nitrophenyl)-3-(3-fluorophenyl)urea], for which the ΔTm at 25 µM was 5.2 °C.

On to `O=C(Nc1ccc(F)cc1)Nc1ccc(Cl)c(O)c1` [Compound 0103, 1-(4-chloro-3-hydroxyphenyl)-3-(4-fluorophenyl)urea], for which the ΔTm at 25 µM is 4.7 °C.

For the molecule `O=c1c(Nc2ccc(F)cc2)c(Nc2ccc(Cl)c(S(=O)(=O)C(F)(F)F)c2)c1=O` [Compound 0112, 3-[4-chloro-3-(trifluoromethylsulfonyl)anilino]-4-(4-fluoroanilino)cyclobut-3-ene-1,2-dione], the ΔTm at 25 µM is 2.08 °C.

Consider `CCN1C(=O)/C(=C\c2cc([N+](=O)[O-])cc(Br)c2O)SC1=S` [Compound 0099], for which the ΔTm at 25 µM is -6.74 °C.

As for `COC(=O)c1cc(C#N)c(Sc2c([N+](=O)[O-])cc(C(F)(F)F)cc2[N+](=O)[O-])nc1C(OC)OC` [Compound 0013], the ΔTm at 25 µM was -7.4 °C.

In the case of `O=C(N/C=C/c1ccsc1)Nc1cc(Cl)ccc1F` [Compound 0010], the ΔTm at 25 µM was 5.43 °C.

As for `Cc1ccc(NC(=O)Nc2cccc(C(F)(F)F)c2)cc1` [Compound 0058, 1-(p-tolyl)-3-(3-(trifluoromethyl)phenyl)urea], the ΔTm at 25 µM was determined as 2.58 °C.

`Cc1ccc(CNC(=O)CSc2nnc(-c3ccc(C)cc3)n2-c2ccccc2)cc1` [Compound 0025]: the ΔTm at 25 µM is -9.21 °C.

Take `O=[N+]([O-])c1cc(/C=N/Nc2ccc(Br)c(Cl)c2)cs1` [Compound 0038]: the ΔTm at 25 µM stood at 7.27 °C.

The same experiment, now with this note: Table 3; 5 μM HSF1 DBD, 25PM Compound; positive = stabilizes, negative = destabilizes HSF1.
With `O=C(Nc1ccc(Cl)cc1)Nc1cccc([N+](=O)[O-])c1` [Compound 049, 1-(4-chlorophenyl)-3-(3-nitrophenyl)urea], the ΔTm at 25 µM came out at 3.11 °C.

Turning to `O=C(Nc1ccc(Cl)c([N+](=O)[O-])c1)Nc1ccc(F)cc1C1(C(F)(F)F)N=N1` [Compound 079, 1-(4-chloro-3-nitro-phenyl)-3-[4-fluoro-2-[3-(trifluoromethyl)diazirin-3-yl]phenyl]urea], the ΔTm at 25 µM is 2.25 °C.

With `Cc1ccc(NC(=O)Nc2cccc(C(F)(F)F)c2)cc1` [Compound 058, 1-(p-tolyl)-3-(3-(trifluoromethyl)phenyl)urea], the ΔTm at 25 µM amounted to 2.58 °C.

Take `O=C(Nc1ccc(F)cc1)Nc1ccc(Cl)c(S(=O)(=O)C(F)(F)F)c1` [Compound 054, 1-[4-chloro-3-(trifluoromethylsulfonyl)phenyl]-3-(4-fluorophenyl)urea]: the ΔTm at 25 µM worked out at 2.9 °C.

With `O=C(Nc1ccc(F)cc1)Nc1ccc(Cl)cc1` [Compound 096, 1-(4-chlorophenyl)-3-(4-fluorophenyl)urea], the ΔTm at 25 µM was found to be 2.61 °C.

With `O=C(Nc1ccc(F)cc1)Nc1cccc(Cl)c1` [Compound 060, 1-(3-chlorophenyl)-3-(4-fluorophenyl)urea], the ΔTm at 25 µM is 2.5 °C.

Consider `N#CN=C(Nc1ccc(F)cc1)Nc1ccc(Cl)c([N+](=O)[O-])c1` [Compound 047, 1-(4-chloro-3-nitro-phenyl)-2-cyano-3-(4-fluorophenyl)guanidine], for which the ΔTm at 25 µM was 0.75 °C.

On to `O=C(Nc1cccc(Cl)c1)Nc1cccc([N+](=O)[O-])c1` [Compound 078, 1-(3-chlorophenyl)-3-(3-nitrophenyl)urea], for which the ΔTm at 25 µM was 2.5 °C.

Another experiment concerns the target T2, purified recombinant human HSF1 (HSF1 DNA binding domain) (Homo sapiens, UniProt Q00613).
T2 sequence (Q00613 15-120): T1 sequence (Q00613 15-120)
Briefly: Melting temperature of HSF1 DBD with HSF1 degrader compounds (Sypro orange). The conditions noted are these: 12.5 micromolar compound, 5 micromolar HSF1 DBD, compared to DMSO; read-out: ΔTm (° C.). The protocol: The melting temperature (ΔTm) for purified recombinant human HSF1 (HSF1 DNA binding domain) was determined in the presence of HSF1 degrader compounds shown in Table 5 and compared to the solvent DMSO. Sypro orange dye was added to the HSF1 DBD (5 micromolar final concentration) in buffer, mixed and distributed to wells in 384 well microtiter plates. HSF1 degrader compound (12.5 micromolar) or DMSO solvent was added to three replicate wells per compound concentration, mixed and plates loaded into a Quant Studio thermnocycler and run on a temperature gradient from 25° C. to 85° C. with increments of 0.5° C. steps. Melting curves were obtained and analyzed using the ThermnoFisher Shift Software 1.4 fitted with a Boltzmann equation to determine the change in melting temperature of the protein in the presence of DMSO as compared to compound. The difference in the melting temperature under these two conditions was assigned as the change in melting temperature of ΔTm.
In the case of `CC(=O)N1CCc2ccc(NC(=O)Nc3ccc(C#N)cc3)cc21` [Compound 281, 1-(1-acetylindolin-6-yl)-3-(4-cyanophenyl)urea], the ΔTm at 12.5 µM is -1.92 °C.

Consider `N#Cc1ccc(NC(=O)Nc2ccc3c(c2)CCCS3(=O)=O)cc1` [Compound 282, 1-(4-cyanophenyl)-3-(1,1-dioxidothiochroman-6-yl)urea], for which the ΔTm at 12.5 µM was -0.97 °C.

As for `N#Cc1ccc(NC(=O)Nc2cccc(-c3nnn[nH]3)c2)cc1` [Compound 280, 1-(3-(1H-tetrazol-5-yl)phenyl)-3-(4-cyanophenyl)urea], the ΔTm at 12.5 µM came out at 0.01 °C.

As for `N#Cc1ccc(NC(=O)Nc2cccc([N+](=O)[O-])c2)cc1` [Compound 273, 1-(4-cyanophenyl)-3-(3-nitrophenyl)urea], the ΔTm at 12.5 µM was 1.15 °C.

For the molecule `CS(=O)(=O)Nc1cccc(NC(=O)Nc2ccc(C#N)cc2)c1` [Compound 276, N-(3-(3-(4-cyanophenyl)ureido)phenyl)methanesulfonamide], the ΔTm at 12.5 µM was found to be 0.12 °C.

In the case of `CCc1cc(NC(=O)Nc2ccc3c(c2)S(=O)(=O)C=C3)ccc1C#N` [Compound 262, 1-(4-cyano-3-ethylphenyl)-3-(1,1-dioxidobenzo[b]thiophen-6-yl)urea], the ΔTm at 12.5 µM came to 2.47 °C.

With `N#Cc1ccc(NC(=O)Nc2ccc3c(c2)C=CS3(=O)=O)s1` [Compound 272, 1-(5-cyanothiophen-2-yl)-3-(1,1-dioxidobenzo[b]thiophen-5-yl)urea], the ΔTm at 12.5 µM was 0.86 °C.

`N#Cc1ccc(NC(=O)Nc2cccc(S(=O)(=O)C(F)(F)F)c2)cc1` [Compound 275, 1-(4-cyanophenyl)-3-(3-((trifluoromethyl)sulfonyl)phenyl)urea]: the ΔTm at 12.5 µM stood at 1.31 °C.

Take `N#Cc1ccc(NC(=O)Nc2ccc3c(c2)C(=O)CCC3)cc1` [Compound 278, 1-(4-cyanophenyl)-3-(8-oxo-5,6,7,8-tetrahydronaphthalen-2-yl)urea]: the ΔTm at 12.5 µM was -0.95 °C.

For `N#Cc1ccc(NC(=O)Nc2ccc3c(c2)S(=O)(=O)C=C3)cc1C1CC1` [Compound 259, 1-(4-cyano-3-cyclopropylphenyl)-3-(1,1-dioxidobenzo[b]thiophen-6-yl)urea], the ΔTm at 12.5 µM came out at 1.25 °C.

On to `N#Cc1ccc(NC(=O)Nc2ccc3c(c2)S(=O)(=O)C=C3)cc1C1CCCC1` [Compound 260, 1-(4-cyano-3-cyclopentylphenyl)-3-(1,1-dioxidobenzo[b]thiophen-6-yl)urea], for which the ΔTm at 12.5 µM is 0.5 °C.
